Laboratory results from patent publication EP0147851B1, “Water soluble forms of polyene antibiotics, and process for preparing them” (priority 1983, dated 1985).
Like-named read-outs stand apart in the source and are kept apart here.

How the values were obtained:
[1] = test system: S. oerevisiae, C. albicans, C. crusei und C. pseudotropicals; experiment: Microbiological potency after storage (MIC); assay type: cell-based; settings: sample stored under nitrogen in the freezer
Protocol: Auch die mikrobiologische Wertmessung bestätigte, daß das Flavofungin in Form des γ-CD-Komplexes viel stabiler ist. Flavofungin-γ-CD-Komplex wurde bei Raumtemperatur und bei 60°C gelagert, und danach war die antifungale Wirkung genau so groß wie ursprünglich.
(§1) Auch mit diesem Produkt wird die im Beispiel 1 beschriebene Untersuchung der Wärmestabilität vorgenommen. Dabei wurde gefunden, daß der Komplex, ähnlich wie der lyophilisierte Komplex, eine erhöhte Wärmestabilität zeigt und seine antifungale Wirkung nicht geringer wird.

[2] = Heat and storage stability of the solid substances (spectrophotometric content); assay type: physicochemical; settings: 60 °C, 24 Stunden, not protected from light or air
Protocol: Zur Untersuchung der Wärmestabilität des Flavofungin-γ-CD-Komplexes wurden die Substanzen in 1 mm Schichtdicke auf Uhrgläsern ausgebreitet und weder vor Licht noch vor Luft geschützt bei Raumtemperatur beziehungsweise bei 60 °C im Trockenschrank gelagert. Die zu unterschiedlichen Zeitpunkten genommenen Proben wurden spektrophotometrisch analysiert.
Der Wirkstoffgehalt des Flavofungin-γ-CD-Komplexes blieb jedoch auch nach 50 Tagen zu etwa 75 % erhalten. Ein 10 % Flavofungin enthaltendes, mit Glucose bereitetes physikalisches Gemisch verlor bei 14tägiger Lagerung bei Raumtemperatur 50 % seines Wirkstoffgehaltes. Der Wirkstoffgehalt des Komplexes war jedoch auch nach 50 Tagen noch zu mehr als 95 % erhalten. Die in einem verschlossenen Gefäß bei +4 °C 7 Monate lang gelagerte Probe zeigte keinen Verlust an Wirkstoff. Die Meßergebnisse sind in der Tabelle 4 zusammengestellt.
as §1

[3] = Raumtemperatur an der Luft, innerhalb von zwei Wochen; cited from earlier work
[4] = Solubility of Flavofungin in aqueous γ-CD solutions (spectrophotometric); assay type: physicochemical; settings: 4 % γ-CD versus water
Protocol: Der erste Beweis für die Wechselwirkung zwischen Flavofungin und γ-Cyclodextrin ist der beträchtliche Anstieg der Löslichkeit des Flavofungins in wäßrigen γ-Cyclodextrinlösungen. Zur Untersuchung der Löslichkeit wurden wäßrige γ-CD-Lösungen unterschiedlicher Konzentration hergestellt: die Lösungen enthielten 0, 1, 2, 3, 4, 5, 7,5 beziehungsweise 10 % γ-CD. Zu je 1 ml der Lösungen wurden 5 mg festes Flavofungin gegeben. Die Lösungen wurden bei 25 °C 3 Stunden lang intensiv geschüttelt.
Die Lösungen wurden klarfiltriert, dann wurde spektrophotometrisch die Menge des in Lösung gegangenen Flavofungins ermittelt. Die Messungen zeigten, daß sich das Flavofungin am besten in 4 % γ-CD enthaltenden wäßrigen Lösungen löst; unter den Bedingungen der Untersuchung können Konzentrationen von etwa 4 mg/ml erzielt werden. […] Eine weitere Erhöhung der γ-CD-Konzentration steigert die Löslichkeit des Flavofungins nicht weiter. Die Ergebnisse der Löslichkeitsuntersuchungen sind in der Tabelle 1 zusammengefaßt.
Die aus dem anfänglich linearen Abschnitt der bei 25 °C aufgenommenen Löslichkeitsisotherme berechnete scheinbare Stabilitätskonstante des Komplexes beträgt etwa 3230.
Die maximale Löslichkeit in 4 %iger γ-CD-Lösung wurde auch bei verschiedenen Temperaturen untersucht. Die Flavofunginkonzentration betrug bei 10 °C 3,3 mg/ml, bei 30 °C 4,1 mg/ml und bei 40 °C 3,8 mg/ml.

[5] = test system: aus menschlichem Blut hergestellten Suspensionen roter Blutkörperchen; settings: cited from earlier work
[6] = Solubility of Amphotericin B in aqueous γ-CD solutions (spectrophotometric); assay type: physicochemical; settings: for Amphotericin B Konzentration: 37 °C, 2 Stunden geschüttelt
Protocol: Das ist ein weiterer Beweis dafür, daß das Amphotericin in den γ-CD-haltigen wäßrigen Lösungen in molekular disperser Form vorliegt.
Auch für Amphotericin B wurde die Löslichkeit als Funktion der γ-CD-Konzentration ermittelt. Zu wäßrigen γ-CD-Lösungen unterschiedlicher Konzentration (0, 2, 4, 5, 6, 8, 10 beziehungsweise 12 %) wurden 5 mg/ml Amphotericin B gegeben, und die bei 37 °C thermostatisierten Lösungen wurden 2 Stunden lang intensiv geschüttelt. Die Lösungen wurden klarfiltriert, und die Menge des in Lösung gegangenen Amphotericin B wurde spektrophotometrisch bestimmt. Die Ergebnisse sind in der Tabelle 3 zusammengestellt.

[7] = test system: aus menschlichem Blut hergestellten Suspensionen roter Blutkörperchen; settings: human
Text: Dyn. 6, 408-414 [1983]) untersucht. Die Ergebnisse werden in Form der zu 50 %iger Hämolyse gehörenden Konzentrationen (EH₅₀) angegeben. […] Auch die hämolytische Wirkung einer der im Komplex gebundenen γ-CD-Menge entsprechenden Menge γ-Cyclodextrin wurde untersucht.

[8] = test system: Mäusen; settings: i.p. an Mäusen; cited from earlier work
[9] = test system: Weibliche CFY-Ratten; experiment: Mortality after subcutaneous administration in rats; assay type: in vivo; settings: subcutan, 302 mg/kg, 10 Tiere, observation one week
Text: • a) Die Resorption von Nystatin aus per os verabreichtem Nystatin-γ-CD-Komplex Die Resorption des Wirkstoffes wurde an Mäusen, an einem durch intravenöse Applikation einer Suspension von Candida albicans hervorgerufenen Sepsismodell untersucht. Die Sepsis verursachte innerhalb von 2-3 Tagen 100 %ige Mortalität. Den Versuchstieren wurde per os gemäß Beispiel 3 hergestellte, 8 % Nystatin enthaltende Komplex verabreicht. In einem Parallelversuch wurde Nystatin intravenös appliziert. Für beide Gruppen wurde die auf die unbehandelte Kontrolle bezogene Verlängerung der Überlebensdauer ermittelt. [formula] Wenn man diejenigen in Form des Komplexes per os verabreichten Nystatindosen mit denjenigen i.v. applizierten Nystatindosen vergleicht, die eine etwa gleiche Verlängerung der Überlebensdauer bewirkten (Tabelle 9, letzte Spalte),so läßt sich errechnen, daß aus dem Komplex durchschnittlich 6,2 % des Wirkstoffes in die Blutbahn gelangten. Bei den höchsten Dosen (i.v. 1,56 mg/kg, p.o. 25 mg/kg) ist das Zurückfallen der Überlebensdauer bereits auf die schwache Toxizität des Nystatins zurückzuführen. • b) Die Resorption von Nystatin aus subcutan appliziertem Nystatin-γ-CD-Komplex Weibliche CFY-Ratten eines durchschnittlichen Gewichtes von 180 g wurden mit Nystatin, mit Nystatin-γ-CD-Komplex (Wirkstoffgehalt9 8 %) beziehungsweise mit γ-CD behandelt. […]

Compound: Flavofungin
- MIC [1]: 25 µg/mL
- Zersetzung of the solid [2]: starke Zersetzung
- Verlust der Aktivität [3]: 50%
- Anstieg der Löslichkeit [4]: etwa das Achtzigfache

Compound: C[C@@H]1[C@H](O)[C@@H](C)/C=C/C=C/C=C/C=C/C=C/C=C/C=C/[C@H](O[C@@H]2O[C@H](C)[C@@H](O)[C@H](N)[C@@H]2O)C[C@@H]2O[C@](O)(C[C@@H](O)C[C@@H](O)[C@H](O)CC[C@@H](O)C[C@@H](O)CC(=O)O[C@H]1C)C[C@H](O)[C@H]2C(=O)O [Amphotericin B]
- EH₅₀ (concentration for 50 % haemolysis) [5]: 5 µg/mL
- Löslichkeit relative to Löslichkeit in Wasser ([6]; 5 %ige γ-CD-Lösung): etwa das Hundertfache
- Löslichkeit relative to Löslichkeit in Wasser ([6]; 10 %ige γ-CD-Lösung): etwa das Zweihundertfache
- Löslichkeit in γ-CD-haltigen Lösungen on addition of salt ([6]; Zusatz von 0,9 Gew.-% Kochsalz): nicht verändert
- Amphotericin B Konzentration ([6]; γ-CD-Konzentration 0 %): 0,003 mg/ml
- Amphotericin B Konzentration ([6]; γ-CD-Konzentration 2 %): 0,12 mg/ml
- Amphotericin B Konzentration ([6]; γ-CD-Konzentration 4 %): 0,25 mg/ml
- Amphotericin B Konzentration ([6]; γ-CD-Konzentration 5 %): 0,30 mg/ml
- Amphotericin B Konzentration ([6]; γ-CD-Konzentration 6 %): 0,36 mg/ml
- Amphotericin B Konzentration ([6]; γ-CD-Konzentration 8 %): 0,51 mg/ml
- Amphotericin B Konzentration ([6]; γ-CD-Konzentration 10 %): 0,65 mg/ml
- Amphotericin B Konzentration ([6]; γ-CD-Konzentration 12 %): 0,65 mg/ml
- EH₅₀ (concentration for 50 % haemolysis) [7]: 4,8 µg/ml
- Hämolyse ([7]; 25 µg/ml): 92,4%

Compound: Methylester von Amphotericin B
- LD₅₀ [8]: 1320 mg/kg

Compound: OC[C@H]1O[C@@H]2O[C@H]3[C@H](O)[C@@H](O)[C@@H](O[C@H]4[C@H](O)[C@@H](O)[C@@H](O[C@H]5[C@H](O)[C@@H](O)[C@@H](O[C@H]6[C@H](O)[C@@H](O)[C@@H](O[C@H]7[C@H](O)[C@@H](O)[C@@H](O[C@H]8[C@H](O)[C@@H](O)[C@@H](O[C@H]9[C@H](O)[C@@H](O)[C@@H](O[C@H]1[C@H](O)[C@H]2O)O[C@@H]9CO)O[C@@H]8CO)O[C@@H]7CO)O[C@@H]6CO)O[C@@H]5CO)O[C@@H]4CO)O[C@@H]3CO [γ-CD, γ-Cyclodextrin]
- Mortalität (animals that died) [9]: kein einziges
